Measured values: paper PMC3392265 (PLoS ONE, 2012)

Biological target: T1, GenK (Corynebacterium glutamicum, UniProt Q8NLB7)
T1 construct: full-length, native gene in intact C. glutamicum RES167 cells; mutants expressed from pXMJ19 in RES167 delta-genK; untagged as far as told; 12 predicted transmembrane helices
Assay: inhibition of […]-gentisate uptake in RES167 cells
Type: cell-based

T1 sequence (Q8NLB7 whole entry): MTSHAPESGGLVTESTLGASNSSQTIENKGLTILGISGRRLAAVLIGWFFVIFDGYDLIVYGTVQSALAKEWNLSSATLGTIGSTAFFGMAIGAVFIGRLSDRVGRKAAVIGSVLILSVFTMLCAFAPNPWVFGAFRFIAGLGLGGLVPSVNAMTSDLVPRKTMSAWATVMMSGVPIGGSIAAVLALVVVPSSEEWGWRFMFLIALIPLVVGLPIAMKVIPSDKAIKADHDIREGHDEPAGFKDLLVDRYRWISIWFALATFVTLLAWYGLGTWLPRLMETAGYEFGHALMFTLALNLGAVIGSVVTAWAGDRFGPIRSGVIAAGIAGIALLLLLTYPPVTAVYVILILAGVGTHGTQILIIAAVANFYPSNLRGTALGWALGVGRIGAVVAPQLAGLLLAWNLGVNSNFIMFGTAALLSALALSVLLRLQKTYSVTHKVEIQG

Q: For O=C(O)c1ccc(O)c(O)c1 [protocatechuate], which inhibition at 800 µM is on record?
A: Its inhibition at 800 µM is 40 to 60%.

Q: How did the inhibition at 800 µM turn out when Oc1ccccc1O [catechol] was run?
A: Its inhibition at 800 µM is 40 to 60%.

Q: For O=C(O)c1ccccc1 [benzoate], which inhibition at 800 µM is on record?
A: The inhibition at 800 µM was 40 to 60%.

Q: O=C(O)c1cccc(O)c1 [3-hydroxybenzoate] was tested. Which inhibition at 800 µM did it give?
A: Its inhibition at 800 µM is 94%.
